{"source": "patent US12240811B2", "about": "“N-heterocyclic five-membered ring-containing capsid protein assembly inhibitor, pharmaceutical composition and uses thereof” (CHIA TAI TIANQING PHARMACEUTICAL GROUP CO., LTD., priority 2019, dated 2025)", "key": {"HBV DNA in serum": {"system": "HBV DNA in serum", "test": "pAAV/HBV mouse model", "type": "in vivo, C57BL/6 mice", "conditions": "3 mpk intragastric once daily", "procedure": "6-8 week old male C57BL/6 mice (Shanghai Lingchang Biotechnology Co., Ltd.) were used, and each mouse was injected with purified recombinant plasmid pAAV/HBV1.2 ([…]) dissolved in PBS equivalent to a volume of about 10% of its body weight through the tail vein within 3-8 s. Blood was collected from the orbits of the mice at 3 days after the plasmid injection to detect serum HBV DNA. The model mice having uniform serum DNA were selected and divided into: a model control group, a vehicle control group, and a test substance group. Mice in each group were continuously administered intragastrically once daily for 10 days at a dose of 3 mg/kg. The mouse serum was taken on day 0, 4, 7, and 10 after the administration, and the mice were sacrificed on day 10 to take liver tissue samples. The HBV DNA copy numbers in serum and liver of the mice were detected by fluorescent quantitative PCR method."}, "CYP 2C9": {"molecular_target": "CYP 2C9 (Homo sapiens (Human), UniProt P11712)", "sequence (P11712 whole entry)": "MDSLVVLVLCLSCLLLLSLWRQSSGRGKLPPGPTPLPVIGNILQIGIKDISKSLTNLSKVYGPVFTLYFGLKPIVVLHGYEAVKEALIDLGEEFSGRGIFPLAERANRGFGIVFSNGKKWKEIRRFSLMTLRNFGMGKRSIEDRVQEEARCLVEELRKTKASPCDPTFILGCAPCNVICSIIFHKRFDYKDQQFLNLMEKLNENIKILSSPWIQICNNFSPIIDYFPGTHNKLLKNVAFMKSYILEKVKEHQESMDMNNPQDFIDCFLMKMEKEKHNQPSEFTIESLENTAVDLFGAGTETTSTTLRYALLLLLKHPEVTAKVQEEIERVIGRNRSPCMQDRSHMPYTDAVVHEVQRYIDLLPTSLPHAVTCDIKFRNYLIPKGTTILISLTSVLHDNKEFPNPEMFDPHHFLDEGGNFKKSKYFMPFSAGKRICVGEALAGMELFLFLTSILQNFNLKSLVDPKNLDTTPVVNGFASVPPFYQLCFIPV", "test": "CYP450 enzyme inhibition study, CYP 2C9", "type": "in vitro ADME", "conditions": "human liver microsomes; read-out: Subtypes IC50 2C9", "procedure": "(§1) 500 μL of a final incubation system contains 50 μL of human liver microsomes (protein concentration: 0.2 mg/mL, Corning), 1 μL of mixed CYP450 specific substrates (CYP1A2, CYP 2B6, CYP 2C9, CYP2C19, CYP 2D6, and CYP 3A4), 398 μL PBS buffer (pH7.4), 1 μL specific positive inhibitor (positive control group) or the test compound (formulated with acetonitrile), and 50 μL NADPH+MgCl2. Duplicate incubation systems of 0.5 mL each were formulated for each CYP450 subtype. A total volume of 450 μL of a uniformly mixed solution of the substrate and the enzyme was formulated in each tube, and the solution and NADPH were pre-incubated at 37° C. for 5 minutes, respectively. Then 50 μL of the mixed solution of NADPH+MgCl2 was added for reaction. 50 μL of the reaction solution was taken out at 30 minutes, and the reaction was terminated with 300 μL of ice acetonitrile containing an internal standard. In addition, two control groups of 500 μL each without NADPH were prepared in parallel as a negative control group.\n(§2) Sample pre-treatment: To 50 μL of the incubated sample was added 300 μL of ice acetonitrile containing an internal standard, and then precipitated. After vortexing for 5 minutes, the sample was centrifugated (12000 rpm, 4° C.) for 10 minutes. 75 μL of the supernatant was pipetted, and 75 μL of ultrapure water was added thereto for dilution and mixed uniformly. […]"}, "[1]": {"test": "Stability of liver microsomes in vitro, mouse", "type": "in vitro ADME", "procedure": "300 μL of a final incubation system contains 30 μL of liver microsomes (protein concentration: 0.15 mg/mL, Corning), 30 μL NADPH+MgCl2, 3 μL substrate (formulated with acetonitrile), and 237 μL PBS buffer. Duplicate incubation systems of 0.3 mL each were formulated for each species. A total volume of 270 μL of a uniformly mixed solution of the substrate and the enzyme was formulated in each tube, the solution and NADPH were pre-incubated at 37° C. for 5 minutes, respectively. Then 30 μL of the mixed solution of NADPH+MgCl2 was added for reaction. 50 μL of the reaction solution was taken out at 0, 10, 30, and 60 mins, and the reaction was terminated with 300 μL of ice acetonitrile containing an internal standard.\nSample pre-treatment: To 50 μL of the incubated sample was added 300 μL of ice acetonitrile containing diazepam as an internal standard and then precipitated. After vortexing for 5 minutes, the sample was centrifugated (12000 rpm, 4° C.) for 10 minutes. 75 μL of the supernatant was pipetted into a 96-well plate, and then diluted with 75 μL ultrapure water and mixed uniformly. 0.5 μL of the resulting solution was injected and analyzed by LC-MS/MS."}, "CYP 2B6": {"molecular_target": "CYP 2B6 (Homo sapiens (Human), UniProt P20813)", "sequence (P20813 whole entry)": "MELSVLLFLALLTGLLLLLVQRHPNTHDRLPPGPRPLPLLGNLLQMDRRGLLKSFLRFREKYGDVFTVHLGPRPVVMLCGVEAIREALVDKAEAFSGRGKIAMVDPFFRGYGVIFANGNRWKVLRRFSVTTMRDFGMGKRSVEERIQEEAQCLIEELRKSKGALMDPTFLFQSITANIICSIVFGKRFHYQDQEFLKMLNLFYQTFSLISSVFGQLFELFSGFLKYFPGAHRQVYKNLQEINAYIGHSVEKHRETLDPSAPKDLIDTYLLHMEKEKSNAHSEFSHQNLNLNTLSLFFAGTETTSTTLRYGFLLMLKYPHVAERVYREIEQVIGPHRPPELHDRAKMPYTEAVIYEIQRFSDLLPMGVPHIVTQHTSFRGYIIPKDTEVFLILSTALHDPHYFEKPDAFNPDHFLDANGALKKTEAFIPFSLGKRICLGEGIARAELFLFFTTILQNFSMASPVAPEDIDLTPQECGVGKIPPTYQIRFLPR", "test": "CYP450 enzyme inhibition study, CYP 2B6", "type": "in vitro ADME", "conditions": "human liver microsomes; read-out: Subtypes IC50 2B6", "procedure": "as §1, §2"}, "[2]": {"test": "Plasma protein binding assay, monkey plasma", "type": "in vitro ADME", "procedure": "Formulation of plasma sample: 495 μL of blank plasmas of the corresponding species (mouse, rat, dog, monkey, and human) were drawn respectively, and thereto was added 5 μL of the corresponding test compound solution or positive control to give plasma sample solutions having a plasma drug concentration of the compound of 1 μM, and 10 μM, respectively (formulated with acetonitrile).\nThe pre-treated dialysis membrane was placed in a high-throughput equilibrium dialysis device, and 100 μL of the plasma sample solution and PBS buffer solution were drawn and added respectively to both sides of the dialysis membrane (sample side and buffer side) (n=3). After the equilibration device was sealed with a film, it was incubated at 37° C. overnight (100 rpm). After dialysis equilibrium was reached, 50 μL samples were drawn from the sample side and the buffer side, respectively, and the reaction was terminated by adding ice acetonitrile containing an internal standard.\nas §2, with “plasma-side” for “incubated”, “450” for “300”, “uniformly. 1 μL of the resulting solution was injected for analysis.” for “uniformly.”"}, "CYP2C19": {"molecular_target": "CYP2C19 (Homo sapiens (Human), UniProt P33261)", "sequence (P33261 whole entry)": "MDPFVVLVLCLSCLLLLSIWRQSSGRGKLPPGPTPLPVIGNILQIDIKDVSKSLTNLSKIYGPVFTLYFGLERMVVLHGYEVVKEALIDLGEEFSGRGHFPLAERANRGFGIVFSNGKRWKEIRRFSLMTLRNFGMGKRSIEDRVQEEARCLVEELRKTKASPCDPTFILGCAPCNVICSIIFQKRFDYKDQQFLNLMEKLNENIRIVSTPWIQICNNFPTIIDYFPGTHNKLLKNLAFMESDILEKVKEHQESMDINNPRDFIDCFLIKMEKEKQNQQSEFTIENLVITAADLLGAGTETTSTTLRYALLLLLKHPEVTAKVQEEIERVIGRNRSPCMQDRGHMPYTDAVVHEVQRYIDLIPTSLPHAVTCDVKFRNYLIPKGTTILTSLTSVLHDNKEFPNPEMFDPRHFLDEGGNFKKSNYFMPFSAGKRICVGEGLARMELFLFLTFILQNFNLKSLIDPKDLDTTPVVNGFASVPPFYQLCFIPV", "test": "CYP450 enzyme inhibition study, CYP2C19", "type": "in vitro ADME", "procedure": "as §1, §2"}}, "note": "pIC50: −log10 of the molar value.", "data": [{"compound": "Cc1[nH]c(C(=O)C(=O)N[C@@H](C)C(F)(F)F)c(C)c1C(=O)Nc1ccc(F)c(C#N)c1", "note": "[Example 1, (S)—N-(3-cyano-4-fluorophenyl)-2,4-dimethyl-5-(2-oxo-2-((1,1,1-trifluoroprop-2-yl)amino)acetyl)-1H-pyrrole-3-carboxamide]", "values": [{"measurement": "Reduction levels (log10) of HBV DNA in serum, Day 4", "setting": "HBV DNA in serum; Day 4", "result": 2.95, "unit": "log10"}, {"measurement": "Reduction levels (log10) of HBV DNA in serum, Day 7", "setting": "HBV DNA in serum; Day 7", "result": 4.13, "unit": "log10"}, {"measurement": "Reduction levels (log10) of HBV DNA in serum, Day 10", "setting": "HBV DNA in serum; Day 10", "result": 2.71, "unit": "log10"}, {"measurement": "pIC50", "setting": "CYP 2C9", "result": "< 3.70"}, {"measurement": "Remaining (%) of mouse liver microsomes at 60 min", "setting": "[1]", "result": 96, "unit": "%"}, {"measurement": "pIC50", "setting": "CYP 2B6", "result": "< 3.70"}, {"measurement": "Binding rate (%) Monkey", "setting": "[2]; 1 μM", "result": 90.2, "unit": "%"}, {"measurement": "Binding rate (%) Monkey", "setting": "[2]; 10 μM", "result": 90.5, "unit": "%"}, {"measurement": "pIC50", "setting": "CYP2C19", "result": 4.70}]}]}
